{
  "source": "patent US20260234150A1",
  "about": "“COMPOUND FOR INHIBITING NLRP3, PREPARATION METHOD, AND USE” (DOVETREE MEDICINES UNUS, INC., priority 2023, published 2026)",
  "assay_type_in_all_cases": "in vitro ADME",
  "key": {"[1]": {"test": "Liver microsome metabolic stability, rat", "conditions": "rat liver microsomes, 45 min incubation", "method": "(§1) Purpose: This experiment investigates the metabolic stability of the compound in liver microsomes of different species such as humans, mice and rats, and the residual content of the test compound after incubation with liver microsomes of different species such as humans, mice and rats.\n(§2) Preparation of 500 μM solution of target compound and positive control: 5 μL of each 10 mM stock solution was taken, added to 95 μL acetonitrile, and mixed for 30 s;\n(§3) Preparation of 6 mM NADPH solution: 100 mM Stock aliquot liquid was diluted with Mg-Mg —K-Buffer.\n(§4) 2.1.1 Liver microsome solution: 18.75 μL of 20 mg/mL HLM, RLM, MLM, DLM, MOLM (final concentration: 0.5 mg/ml) were taken and placed them in each well of a 96-well plate;\n(§5) 2.1.2 1.5 μL of 500 μM solution of each compound was added respectively;\n(§6) 2.1.3 479.8 μL of phosphate buffer was taken, then added to each compound well, and mixed at 1000 rpm in an oscillating mixer for 10 s.\n(§7) 30 μL of the above samples were taken and aliquoted to a new 96-well plates respectively (including NADPH group, n=2, and no NADPH group at 0 and 45 min, n=1), marked as 0, 5, 15, 30 and 45 min; […]\n(§8) The slope was calculated based on the LN value of the compound concentration percentage and time as the coordinate axis, and the residual content of the compound after incubation with liver microsomes was calculated based on the slope and formula. […]"}, "CYP2C9": {"target": "T1, CYP2C9 (Homo sapiens, UniProt P11712)", "T1 construct": "0.05 mg/mL liver microsome (BioIVT, IHG) phosphate buffer solution; tissue BioIVT IHG; host or cells: human liver microsomes", "T1 sequence (P11712 whole entry)": "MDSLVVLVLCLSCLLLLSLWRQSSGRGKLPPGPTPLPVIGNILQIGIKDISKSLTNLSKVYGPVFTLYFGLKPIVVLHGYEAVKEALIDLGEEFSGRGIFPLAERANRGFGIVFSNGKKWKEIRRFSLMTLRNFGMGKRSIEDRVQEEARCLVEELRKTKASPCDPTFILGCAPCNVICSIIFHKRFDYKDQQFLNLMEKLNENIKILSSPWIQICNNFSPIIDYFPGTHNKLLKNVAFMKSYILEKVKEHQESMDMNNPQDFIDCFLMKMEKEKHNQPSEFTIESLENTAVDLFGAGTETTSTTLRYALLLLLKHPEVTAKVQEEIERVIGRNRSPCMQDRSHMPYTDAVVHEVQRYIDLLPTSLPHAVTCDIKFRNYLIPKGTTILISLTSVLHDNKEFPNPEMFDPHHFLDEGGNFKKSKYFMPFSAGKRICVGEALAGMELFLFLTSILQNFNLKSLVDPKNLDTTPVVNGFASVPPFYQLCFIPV", "test": "CYP450 enzyme inhibition in human liver microsomes, CYP2C9", "conditions": "substrate Diclofenac Sodium, read-out: Inhibitory activity IC50 (μM) CYP2C9", "method": "This experiment incubates the compound, liver microsomes and different CYP subtype enzyme substrates in a 37° C. water bath to measure the amount of substrate metabolites produced and evaluate the inhibitory effect of the compound of the present disclosure on CYP enzymes based on the IC50 value.\ni. The compound was diluted to 0, 0.02 mM, 0.06 mM, 0.2 mM, 0.6 mM, 2 mM and 6 mM concentrations with DMSO (Aladdin, catalog number: D103273-500 ml).\nii. The enzyme substrate solutions of each CYP subtype were prepared by phosphate buffer (sigma: V900050-500G).\niii. Sample incubation. […] After centrifugation at 4000 rpm and 4° C. for 40 min, the supernatant was diluted with pure water according to the response of the substrate metabolites and then detected by UPLC-MS/MS (Sciex, Q-Trap 4500). […]\nThe inhibitory effect of the compound on each P450 enzyme in human liver microsomes was calculated as the percentage of reduced metabolite formation compared with the non-inhibitory control (i.e., blank DMSO). The IC50 value for each P450 enzyme in human liver microsomes was calculated using the logarithm of the remaining activity and the inhibitor concentration using Graphpad Prism software. […]"}, "[2]": {"test": "Liver microsome metabolic stability, mouse", "conditions": "mouse liver microsomes, 45 min incubation", "method": "as §1, §2, §3, §4, §5, §6, §7, §8"}},
  "data": [
    {"smiles": "CC(=O)N1CCOC[C@H]1CNc1nc2nc(-c3c(C)cc(C(F)(F)F)cc3O)ccc2o1", "note": "[Compound 111]", "values": [
      {"measurement": "LMS (r)(% rem, 45 min)", "setting": "[1]", "result": 82.45, "unit": "% rem"},
      {"measurement": "IC50", "setting": "CYP2C9", "result": "> 30", "unit": "µM"},
      {"measurement": "LMS (m)(% rem, 45 min)", "setting": "[2]", "result": 91.34, "unit": "% rem"}
    ]}
  ]
}
